The term IC50 denotes the concentration that gives 50% inhibition.

One assay concerns BaF3_HER2WT cells. Briefly: Cell growth inhibition assay, BaF3_HER2WT. Format: cell-based. Conditions: 72 h, 3 days treatment, CellTiterGlo 2.0, read-out: HER2 WT IC50 (nM), cell growth inhibition.
Another assay concerns the target wtERBB2 (Homo sapiens (Human), UniProt P04626). As to the kind of experiment: HotSpot radiometric kinase activity assay, wtERBB2. Format: biochemical. To be noted: 30 nM wtERBB2, 10 μM 33P-ATP, 20 min preincubation, 2 hours, read-out: HER2 WT IC50. The method, then: (§1) The purpose of the wtERBB2, ERBB2-A775_G776insYVMA (ERBB2YVMA), wtEGFR biochemical assay was to evaluate the inhibition (% inhibition and IC50 values) of the small molecule inhibitors by using the “HotSpot” radiometric kinase activity assay. HotSpot assays monitor the […] of kinase substrate by the radioactive gamma phosphate of adenosine triphosphate (33P-ATP) during biochemical reactions. HotSpot assays was performed in steps upon completion of the kinase reaction: deposition of a reaction mixture aliquot onto P81 ion exchange paper, extensive washing of the aforementioned P81 paper using phosphoric acid to remove unbound radiolabeled 33P-ATP from the P81 paper, and finally visualization and quantification of the dried P81 paper utilizing a phosphoimager. […] Typical reaction solutions (10 μL final reaction volume) contained the following buffer conditions: 20 mM Hepes (pH 7.5), 10 mM MgCl2, 1 mM EGTA, 0.01% Brij35, 0.02 mg/mL BSA, 0.1 mM Na3VO4, 2 mM DTT, 1% DMSO. The assay was primed by preparing a fresh 0.2 mg/mL solution of pEY (Sigma Cat: P7244) substrate in the reaction buffer and supplementing that solution with […] of MnCl2 as substrate cofactor (Sigma Cat: M9522). The kinase of interest was then added to the solution at the appropriate concentration (30 nM wtERBB2 from, or 20 nM ERBB2YVMA, or 4 nM wtEGFR) and gently mixed prior to delivery of compound in 100% DMSO by acoustic dispensing (Beckman Echo550). Compound, Kinase, and substrate were allowed to incubate for 20 min at room temperature prior to the initiation of the reaction by addition of 33P-ATP (PerkinElmer Cat: NEG602, final conc 10 μM). […] IC50 determinations were made from a plot of kinase activity as a function of inhibitor concentration fit to the 4-parameter IC50 equation with the enzyme concentration held constant using GraphPad Prism (San Diego).

For a further assay, the system named is BaF3_HER2YVMA cells. As to the kind of experiment: Cell growth inhibition assay, BaF3_HER2YVMA. Format: cell-based. Conditions: 72 h, read-out: HER2-YVMA IC50 (nM), cell growth inhibition.
Another assay has as its target wtEGFR (Homo sapiens (Human), UniProt P00533). Briefly: HotSpot radiometric kinase activity assay, wtEGFR. It is filed as biochemical. Conditions: 4 nM wtEGFR, 10 μM 33P-ATP, 20 min preincubation, 2 hours, read-out: EGFR WT IC50. The method, then:
as §1

The subject of the next assay is BaF3_EGFRWT cells. Briefly: Cell growth inhibition assay, BaF3_EGFRWT. Format: cell-based. Conditions: 72 h, 80 ng/mL recombinant human EGF, 3 days treatment, CellTiterGlo 2.0, read-out: EGFR WT IC50 (nM), cell growth inhibition. (In general: In ATP-based viability assays light output follows the ATP content of the culture.)
[1] abbreviates: BaF3_HER2YVMA cells, 3 days treatment, CellTiterGlo 2.0.

Each structure is given as a SMILES string. Read-outs that look alike come from different tables or passages of the source.

Sequence of wtEGFR (P00533 25-1210): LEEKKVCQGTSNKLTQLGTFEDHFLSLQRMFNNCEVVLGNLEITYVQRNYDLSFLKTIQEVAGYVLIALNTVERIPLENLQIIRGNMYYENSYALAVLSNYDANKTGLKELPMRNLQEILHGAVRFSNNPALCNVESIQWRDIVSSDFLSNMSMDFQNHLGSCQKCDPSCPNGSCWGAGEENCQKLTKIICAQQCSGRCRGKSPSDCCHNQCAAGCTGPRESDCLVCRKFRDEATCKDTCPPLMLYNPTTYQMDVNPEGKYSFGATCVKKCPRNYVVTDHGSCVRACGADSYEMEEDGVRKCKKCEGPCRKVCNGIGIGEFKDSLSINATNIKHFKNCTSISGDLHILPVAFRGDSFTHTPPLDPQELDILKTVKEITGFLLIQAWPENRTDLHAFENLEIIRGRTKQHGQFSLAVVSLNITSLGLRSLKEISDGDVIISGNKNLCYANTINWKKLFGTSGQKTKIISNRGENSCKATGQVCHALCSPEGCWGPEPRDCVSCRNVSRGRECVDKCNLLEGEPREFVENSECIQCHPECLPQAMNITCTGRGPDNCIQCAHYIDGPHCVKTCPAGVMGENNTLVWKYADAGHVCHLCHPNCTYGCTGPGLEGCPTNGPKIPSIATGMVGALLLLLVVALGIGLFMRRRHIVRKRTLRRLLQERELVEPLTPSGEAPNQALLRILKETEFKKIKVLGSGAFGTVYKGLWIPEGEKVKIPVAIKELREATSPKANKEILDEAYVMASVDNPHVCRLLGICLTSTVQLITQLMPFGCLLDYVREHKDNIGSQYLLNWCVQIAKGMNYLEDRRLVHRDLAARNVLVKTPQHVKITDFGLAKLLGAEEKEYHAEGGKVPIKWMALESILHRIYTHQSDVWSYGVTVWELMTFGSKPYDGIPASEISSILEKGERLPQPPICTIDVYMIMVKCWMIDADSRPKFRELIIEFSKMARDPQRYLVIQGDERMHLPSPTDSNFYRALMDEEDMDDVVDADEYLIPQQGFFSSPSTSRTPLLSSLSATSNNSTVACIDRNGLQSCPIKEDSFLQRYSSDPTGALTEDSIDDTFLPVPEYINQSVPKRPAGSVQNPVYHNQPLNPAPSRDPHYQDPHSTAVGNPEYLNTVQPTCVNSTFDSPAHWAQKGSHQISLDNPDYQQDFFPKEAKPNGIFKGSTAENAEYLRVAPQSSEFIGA
Sequence of wtERBB2 (P04626 23-1255): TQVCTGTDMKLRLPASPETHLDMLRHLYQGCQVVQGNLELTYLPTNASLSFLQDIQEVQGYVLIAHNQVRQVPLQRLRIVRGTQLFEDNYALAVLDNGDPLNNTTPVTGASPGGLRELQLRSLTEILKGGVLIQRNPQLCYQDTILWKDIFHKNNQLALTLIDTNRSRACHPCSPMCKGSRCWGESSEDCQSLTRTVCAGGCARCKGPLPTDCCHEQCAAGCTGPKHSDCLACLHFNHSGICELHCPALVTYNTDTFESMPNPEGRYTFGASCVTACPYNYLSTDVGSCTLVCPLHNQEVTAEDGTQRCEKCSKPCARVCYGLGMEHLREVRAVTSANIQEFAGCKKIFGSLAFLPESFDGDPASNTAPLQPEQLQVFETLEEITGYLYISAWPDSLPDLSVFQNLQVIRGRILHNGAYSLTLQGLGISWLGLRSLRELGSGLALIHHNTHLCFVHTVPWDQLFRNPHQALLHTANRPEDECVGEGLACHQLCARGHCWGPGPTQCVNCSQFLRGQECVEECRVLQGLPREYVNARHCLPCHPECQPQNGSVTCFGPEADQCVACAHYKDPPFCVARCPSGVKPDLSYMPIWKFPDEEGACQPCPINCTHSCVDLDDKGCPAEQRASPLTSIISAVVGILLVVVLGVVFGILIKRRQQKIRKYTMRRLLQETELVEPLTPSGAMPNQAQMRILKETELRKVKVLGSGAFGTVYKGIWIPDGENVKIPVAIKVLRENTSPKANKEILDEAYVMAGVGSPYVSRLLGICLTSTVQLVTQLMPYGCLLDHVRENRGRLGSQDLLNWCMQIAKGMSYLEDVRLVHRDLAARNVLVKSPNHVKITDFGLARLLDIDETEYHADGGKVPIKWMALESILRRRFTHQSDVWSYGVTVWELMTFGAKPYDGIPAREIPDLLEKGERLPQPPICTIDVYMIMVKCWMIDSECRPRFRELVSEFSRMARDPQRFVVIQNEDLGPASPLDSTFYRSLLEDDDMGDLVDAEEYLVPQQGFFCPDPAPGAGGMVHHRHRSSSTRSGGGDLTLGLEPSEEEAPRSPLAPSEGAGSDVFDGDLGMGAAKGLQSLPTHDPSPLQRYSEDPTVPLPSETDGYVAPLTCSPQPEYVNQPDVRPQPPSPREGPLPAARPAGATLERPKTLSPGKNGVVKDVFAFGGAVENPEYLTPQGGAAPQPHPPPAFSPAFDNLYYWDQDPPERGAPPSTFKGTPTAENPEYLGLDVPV

On to `Cc1cc(Nc2ncnn3ccc(C4CN(C(=O)/C=C/CN5CCCC5)C4)c23)ccc1Oc1ccn2ncnc2c1` [Example 97, (E)-1-(3-(4-((4-([1,2,4]triazolo[1,5-a]pyridin-7-yloxy)-3-methylphenyl)amino)pyrrolo[2,1-f][1,2,4]triazin-5-yl)azetidin-1-yl)-4-(pyrrolidin-1-yl)but-2-en-1-one], for which the IC50 in the assay with BaF3_HER2WT cells was less than 200 nM; on wtERBB2 it was less than 200 nM; with BaF3_HER2YVMA cells, less than 200 nM; on wtEGFR it was less than 200 nM; in the assay on BaF3_EGFRWT cells it was 1500 to 5000 nM.
As to `Cc1cc(Nc2ncnn3ccc(C4CCN(C(=O)/C=C/CN(C)C)C4)c23)ccc1Oc1ccn2ncnc2c1` (centres unmarked) [Example 98, (E)-1-(3-(4-((4-([1,2,4]triazolo[1,5-a]pyridin-7-yloxy)-3-methylphenyl)amino)-pyrrolo-[2,1-f][1,2,4]triazin-5-yl)pyrrolidin-1-yl)-4-(dimethylamino)but-2-en-1-one], the IC50 in the assay with BaF3_HER2WT cells was less than 200 nM; at wtERBB2, less than 200 nM; with BaF3_HER2YVMA cells (setting [1]) it was 200 to 500 nM; on wtEGFR, less than 200 nM; in the assay on BaF3_EGFRWT cells it was 1500 to 5000 nM.
As for `COC1CCN(C/C=C/C(=O)N2CCC(c3ccn4ncnc(Nc5ccc(Oc6ccc7c(c6)ncn7C)c(C)c5)c34)CC2)C1` (racemic) [Example 106, (E)-4-(3-methoxypyrrolidin-1-yl)-1-(4-(4-((3-methyl-4-((1-methyl-1H-benzo[d]imidazol-5-yl)oxy)phenyl)amino)pyrrolo[2,1-f][1,2,4]triazin-5-yl)piperidin-1-yl)but-2-en-1-one], the IC50 is less than 200 nM at wtEGFR and 1500 to 5000 nM in the assay on BaF3_EGFRWT cells.
For the compound `C=CC(=O)N1CCC[C@@H](c2ccn3ncnc(Nc4ccc(Oc5ccn6ncnc6c5)c(C)c4)c23)CC1` (single isomer, unassigned) [Example 111], the IC50 at wtERBB2 and on wtEGFR was less than 200 nM throughout.
Turning to `Cc1cc(Nc2ncnn3ccc([C@@H]4CCCN(C(=O)/C=C/CN(C)C)CC4)c23)ccc1Oc1ccn2ncnc2c1` (single isomer, unassigned) [Example 109], the IC50 at wtERBB2 and on wtEGFR was less than 200 nM throughout.
Consider `C=CC(=O)NCCn1cc(-c2ccn3ncnc(Nc4ccc(Oc5ccn6ncnc6c5)c(C)c4)c23)cn1` [Example 13, N-(2-(4-(4-((4-([1,2,4]triazolo[1,5-a]pyridin-7-yloxy)-3-methylphenyl)amino)pyrrolo[2,1-f][1,2,4]triazin-5-yl)-1H-pyrazol-1-yl)ethyl)acrylamide], for which the IC50 in the assay on BaF3_HER2WT cells was less than 200 nM; at wtERBB2, less than 200 nM; in the assay on BaF3_HER2YVMA cells (setting [1]), 200 to 500 nM; with BaF3_EGFRWT cells it was 1500 to 5000 nM.
Regarding `Cc1cc(Nc2ncnn3ccc([C@@H]4CCN(C(=O)/C=C/CN(C)C)C4)c23)ccc1Oc1ccn2ncnc2c1` (single isomer, unassigned) [Example 99], the IC50 at wtERBB2 and at wtEGFR was less than 200 nM each time.
Consider `C=C(F)C(=O)N1CC(n2cc(-c3ccn4ncnc(Nc5ccc(Oc6ccn7ncnc7c6)c(C)c5)c34)cn2)C1` [Example 19, 1-(3-(4-(4-((4-([1,2,4]triazolo[1,5-a]pyridin-7-yloxy)-3-methylphenyl)amino)pyrrolo[2,1-f][1,2,4]triazin-5-yl)-1H-pyrazol-1-yl)azetidin-1-yl)-2-fluoroprop-2-en-1-one], for which the IC50 in the assay with BaF3_HER2WT cells is 200 to 500 nM; on wtERBB2 it was less than 200 nM; with BaF3_HER2YVMA cells (setting [1]), 500 to 1500 nM; with BaF3_EGFRWT cells, 1500 to 5000 nM.
As for `Cc1cc(Nc2ncnn3ccc(C4CC5(C4)CN(C(=O)/C=C/CN(C)C)C5)c23)ccc1Oc1ccn2ncnc2c1` [Example 95, (E)-1-(6-(4-((4-([1,2,4]triazolo[1,5-a]pyridin-7-yloxy)-3-methylphenyl)amino)pyrrolo[2,1-f][1,2,4]triazin-5-yl)-2-azaspiro[3.3]heptan-2-yl)-4-(dimethylamino)but-2-en-1-one], the IC50 is 200 to 500 nM in the assay with BaF3_HER2WT cells, less than 200 nM on wtERBB2, 500 to 1500 nM in the assay with BaF3_HER2YVMA cells (setting [1]) and 1500 to 5000 nM in the assay on BaF3_EGFRWT cells.
As to `Cc1cc(Nc2ncnn3ccc(C4CN(C(=O)/C=C/CN5CC(F)(F)C5)C4)c23)ccc1Oc1ccn2ncnc2c1` [Example 91, (E)-1-(3-(4-((4-([1,2,4]triazolo[1,5-a]pyridin-7-yloxy)-3-methylphenyl)amino)pyrrolo[2,1-f][1,2,4]-triazin-5-yl)azetidin-1-yl)-4-(3,3-difluoroazetidin-1-yl)but-2-en-1-one], the IC50 is less than 200 nM in the assay on BaF3_HER2WT cells, less than 200 nM on wtERBB2, 500 to 1500 nM in the assay on BaF3_HER2YVMA cells (setting [1]) and 1500 to 5000 nM in the assay with BaF3_EGFRWT cells.
Take `Cc1cc(Nc2ncnn3ccc(-c4cnn(CCNC(=O)/C=C/CN(C)C)c4)c23)ccc1Oc1ccn2ncnc2c1` [Example 103, (E)-N-(2-(4-(4-((4-([1,2,4]triazolo[1,5-a]pyridin-7-yloxy)-3-methylphenyl)amino)pyrrolo[2,1-f][1,2,4]triazin-5-yl)-1H-pyrazol-1-yl)ethyl)-4-(dimethylamino)but-2-enamide]: the IC50 in the assay on BaF3_HER2WT cells is 1500 to 5000 nM; at wtERBB2, less than 200 nM; in the assay on BaF3_HER2YVMA cells (setting [1]), 1500 to 5000 nM; in the assay with BaF3_EGFRWT cells, 1500 to 5000 nM.
In the case of `C=CC(=O)NC1CCN(C(=O)c2ccn3ncnc(Nc4ccc(Oc5ccn6ncnc6c5)c(C)c4)c23)CC1` [Example 5, N-(1-(4-((4-([1,2,4]triazolo[1,5-a]pyridin-7-yloxy)-3-methylphenyl)amino)pyrrolo[2,1-f][1,2,4]triazine-5-carbonyl)piperidin-4-yl)acrylamide], the IC50 with BaF3_HER2WT cells was less than 200 nM; on wtERBB2 it was less than 200 nM; in the assay on BaF3_HER2YVMA cells (setting [1]), 200 to 500 nM; in the assay on BaF3_EGFRWT cells, 1500 to 5000 nM.
With `C=CC(=O)N1CCC[C@H](c2ccn3ncnc(Nc4ccc(Oc5ccn6ncnc6c5)c(C)c4)c23)CC1` [Example 112, (S)-1-(4-(4-((4-([1,2,4]triazolo[1,5-a]pyridin-7-yloxy)-3-methylphenyl)amino)pyrrolo[2,1-f][1,2,4]triazin-5-yl)azepan-1-yl)prop-2-en-1-one], the concentration for half-maximal inhibition (IC50) at wtERBB2 and on wtEGFR was less than 200 nM each time.
Take `Cc1cc(Nc2ncnn3ccc(N4CCN(C(=O)/C=C/CN(C)C)CC4)c23)ccc1Oc1ccn2ncnc2c1` [Example 22, (E)-1-(4-(4-((4-([1,2,4]triazolo[1,5-a]pyridin-7-yloxy)-3-methylphenyl)amino)pyrrolo[2,1-f][1,2,4]triazin-5-yl)piperazin-1-yl)-4-(dimethylamino)but-2-en-1-one]: the IC50 is less than 200 nM with BaF3_HER2WT cells, less than 200 nM on wtERBB2, less than 200 nM in the assay on BaF3_HER2YVMA cells (setting [1]) and 1500 to 5000 nM with BaF3_EGFRWT cells.
Regarding `Cc1cc(Nc2ncnn3ccc(C(=O)NCCCN(C)C)c23)ccc1Oc1ccn2ncnc2c1` [Example 178, 4-((4-([1,2,4]triazolo[1,5-a]pyridin-7-yloxy)-3-methylphenyl)amino)-N-(3-(dimethylamino)-propyl)pyrrolo[2,1-f][1,2,4]triazine-5-carboxamide], the IC50 is 200 to 500 nM in the assay on BaF3_HER2WT cells, less than 200 nM on wtERBB2, 1500 to 5000 nM with BaF3_HER2YVMA cells (setting [1]) and more than 5000 nM in the assay on BaF3_EGFRWT cells.
On to `C=CC(=O)NC1CN(c2ccn3ncnc(Nc4ccc(Oc5ccn6ncnc6c5)c(C)c4)c23)C1` [Example 14, N-(1-(4-((4-([1,2,4]triazolo[1,5-a]pyridin-7-yloxy)-3-methylphenyl)amino)pyrrolo[2,1-f][1,2,4]triazin-5-yl)azetidin-3-yl)acrylamide], for which the half-inhibitory concentration (IC50) with BaF3_HER2WT cells was less than 200 nM; at wtERBB2, less than 200 nM; in the assay on BaF3_HER2YVMA cells (setting [1]) it was less than 200 nM; in the assay on BaF3_EGFRWT cells, 1500 to 5000 nM.

The values are drawn from US20250276983A1, “COMPOUNDS AND METHODS FOR MODULATING HER2” (IAMBIC THERAPEUTICS, INC., priority 2022, published 2025).
